Measured values: patent US20200068890A1 (Person to Whom the Inventor is Obligated to Assign, priority 2017, published 2020)
Like-named read-outs stand apart in the source and are kept apart here. Blank lines part the entries; values can stand above or below the compound they belong to.

How the values were obtained:
[1] = system: Enterococcus faecalis 775; assay: Broth microdilution MIC; assay type: cell-based
Description: (§1) Assays were carried out by a broth microdilution method using a 96-well plate according to guidelines defined by the European Committee on Antimicrobial Susceptibility Testing as described here. Overnight cultures of strains were grown in tryptic soy broth (TSB) at 37° C. The overnight cultures were diluted to a concentration of 1×10^6 bacteria/ml (OD600=0.01) in TSB media. To each well on 96 well plates, 100 μl of bacterially infected media at a concentration of 1×10^6/ml and compounds at various concentrations were added. An uninfected control (i.e. no bacteria) was also included. The plates were incubated at 37° C. wrapped in parafilm for 20 hrs. The growth was assessed by measuring the absorbance at 600 nm. The minimum inhibitory concentration (MIC) was determined to be the lowest concentration of compound that inhibits visible bacterial growth.

EMRSA-15 = assay: Broth microdilution MIC; assay type: cell-based
Description: as §1

[2] = system: Acinetobacter baumannii 17978; assay: Broth microdilution MIC; assay type: cell-based
Description: as §1

[3] = system: Enterococcus faecium 12204; assay: Broth microdilution MIC; assay type: cell-based
Description: as §1

Klebsiella pneumoniae M6 = assay: Broth microdilution MIC; assay type: cell-based
Description: as §1

[4] = system: Pseudomonas aeruginosa 13437; assay: Broth microdilution MIC; assay type: cell-based
Description: as §1

EMRSA-16 = assay: Broth microdilution MIC; assay type: cell-based
Description: as §1

[5] = system: Klebsiella pneumoniae 13368; assay: Broth microdilution MIC; assay type: cell-based
Description: as §1

[6] = system: Pseudomonas aeruginosa PA01; assay: Broth microdilution MIC; assay type: cell-based
Description: as §1

[7] = system: Acinetobacter baumannii AYE; assay: Broth microdilution MIC; assay type: cell-based
Description: as §1

[8] = system: Escherichia coli NCTC12923; assay: Broth microdilution MIC; assay type: cell-based
Description: as §1

[9] = system: Enterococcus faecalis 12201; assay: Broth microdilution MIC; assay type: cell-based
Description: as §1

MSSA 9144 = assay: Broth microdilution MIC; assay type: cell-based; settings: Staphylococcus aureus
Description: as §1

[10] = system: Gram-positive and Gram-negative bacterial species; assay: Broth microdilution MIC, panel summary; assay type: cell-based; settings: read-out: MIC values
Description: as §1

A. thaliana DHDPS = system: T1, A. thaliana DHDPS; assay: DHDPS-DHDPR coupled assay, dose response inhibitor assay; assay type: biochemical, Arabidopsis thaliana
T1 construct: AtDHDPS|10|0.00008; no borders, domain or tags given
Description: DHDPS enzyme activity was determined using the coupled assay in a Cary 4000 UV/Vis spectrophotometer at 340 nm in 1 cm acrylic cuvettes. A master mix was prepared for each reaction as per Table 1. Reaction mixtures containing enzymes, pyruvate, buffer and NADPH were incubated at 30° C. for 12 mins before the addition of ASA to initiate the reaction. The oxidation of NADPH to NADP^+ was then monitored at 340 nm at 30° C. as a function of time. The initial rate (ΔA340·min^−1) was calculated from the slope of the linear portion of the A340 versus time profile. All experiments were carried out in triplicate. The enzyme kinetic parameters, including KM values, were determined using the Michaelis-Menten equation (Equation 1). Unless otherwise stated, all kinetic data were fitted using the built-in equations in GraphPad Prism.
To determine/C50 values for the inhibitors, A. thaliana DHDPS enzyme activity was measured using the coupled assay (detailed above) in the presence of increasing concentrations of inhibitor. The initial rate was then plotted as a function of the log 10 of the inhibitor concentration and the/C50 determined according to Equation 2.

[11] = system: human liver cells (HepG2); assay: MTT viability assay; settings: for % viability 1 / % viability 2 / % viability 3: 48 hrs
Description: (§2) Cells were harvested and resuspended in growth media (5-10 ml) to count. Cells were diluted to the appropriate concentration (5×10^3), and seeded into 96-well plates as follows: (a) 50 μl of cells per well, (b) 100 μl of growth media in the Blank wells, (c) 100 μl PBS in outer wells (to prevent dehydration of media from the cells). Cells were incubated overnight at 37° C. (5% CO2).
(§3) Compounds were prepared as serial dilutions in growth media. Each treatment concentration was performed in triplicate. 50 μl/well of prepared compound was added to cells.
(§4) A no treatment triplicate (100% viability) was also included by adding 50 μl of growth media to cells. Plates were returned to the incubator for 48 hrs.
(§5) MTT powder in 1×PBS was prepared at 5 mg/ml and filter sterilised. MTT was added to serum-free media to a final concentration of 1 mg/ml. 100 μl of the MTT solution (1 mg/ml) was added to each well, including 0 μM and blank wells. Plates were incubated at 37° C. in incubator for 3 hrs. Following incubation, the media was removed from wells without disrupting the purple crystals formed. 100 μl of DMSO was added to each well using a multichannel pipette. The plates were shaken on the plate shaker until all the crystals have dissolved. The absorbance was measured at 570 nm using a plate reader. The data was analysed using Microsoft Excel. For each treatment concentration the average was calculated, the blank was subtracted and the cell viability was determined as a percentage of the no treatment control (DMSO vehicle control).

[12] = system: human kidney cells (HEK293); assay: MTT viability assay; settings: for % Viability Remaining 1 / % Viability Remaining 2 / % Viability Remaining 3: 48 hrs
Description: as §2, §3, §4, §5

Structure (SMILES): O=C(O)CN1C(=O)S/C(=C\c2ccc(F)cc2)C1=O [Compound 1, (Z)-2-(5-(4-Fluorobenzylidene)-2,4-dioxothiazolidin-3-yl)acetic Acid]
MIC ([1]; Enterococcus faecalis 775, replicate 1, read-out: MIC #1): > 64 mg/L
MIC ([1]; Enterococcus faecalis 775, replicate 2, read-out: MIC #2): > 64 mg/L
MIC ([1]; Enterococcus faecalis 775, replicate 3, read-out: MIC #3): > 64 mg/L
MIC (EMRSA-15; EMRSA-15, replicate 1, read-out: MIC #1): > 64 mg/L
MIC (EMRSA-15; EMRSA-15, replicate 2, read-out: MIC #2): > 64 mg/L
MIC (EMRSA-15; EMRSA-15, replicate 3, read-out: MIC #3): > 64 mg/L
MIC ([2]; Acinetobacter baumannii 17978, replicate 1, read-out: MIC #1): > 64 mg/L
MIC ([2]; Acinetobacter baumannii 17978, replicate 2, read-out: MIC #2): > 64 mg/L
MIC ([2]; Acinetobacter baumannii 17978, replicate 3, read-out: MIC #3): > 64 mg/L
MIC ([3]; Enterococcus faecium 12204, replicate 1, read-out: MIC #1): > 64 mg/L
MIC ([3]; Enterococcus faecium 12204, replicate 2, read-out: MIC #2): > 64 mg/L
MIC ([3]; Enterococcus faecium 12204, replicate 3, read-out: MIC #3): > 64 mg/L
MIC (Klebsiella pneumoniae M6; Klebsiella pneumoniae M6, replicate 1, read-out: MIC #1): > 64 mg/L
MIC (Klebsiella pneumoniae M6; Klebsiella pneumoniae M6, replicate 2, read-out: MIC #2): > 64 mg/L
MIC (Klebsiella pneumoniae M6; Klebsiella pneumoniae M6, replicate 3, read-out: MIC #3): > 64 mg/L
MIC ([4]; Pseudomonas aeruginosa 13437, replicate 1, read-out: MIC #1): > 64 mg/L
MIC ([4]; Pseudomonas aeruginosa 13437, replicate 2, read-out: MIC #2): > 64 mg/L
MIC ([4]; Pseudomonas aeruginosa 13437, replicate 3, read-out: MIC #3): > 64 mg/L
MIC (EMRSA-16; EMRSA-16, replicate 1, read-out: MIC #1): > 64 mg/L
MIC (EMRSA-16; EMRSA-16, replicate 2, read-out: MIC #2): > 64 mg/L
MIC (EMRSA-16; EMRSA-16, replicate 3, read-out: MIC #3): > 64 mg/L
MIC ([5]; Klebsiella pneumoniae 13368, replicate 1, read-out: MIC #1): > 64 mg/L
MIC ([5]; Klebsiella pneumoniae 13368, replicate 2, read-out: MIC #2): > 64 mg/L
MIC ([5]; Klebsiella pneumoniae 13368, replicate 3, read-out: MIC #3): > 64 mg/L
MIC ([6]; Pseudomonas aeruginosa PA01, replicate 1, read-out: MIC #1): > 64 mg/L
MIC ([6]; Pseudomonas aeruginosa PA01, replicate 2, read-out: MIC #2): > 64 mg/L
MIC ([6]; Pseudomonas aeruginosa PA01, replicate 3, read-out: MIC #3): > 64 mg/L
MIC ([7]; replicate 1, read-out: MIC #1): > 64 mg/L
MIC ([7]; replicate 2, read-out: MIC #2): > 64 mg/L
MIC ([7]; replicate 3, read-out: MIC #3): > 64 mg/L
MIC ([8]; Escherichia coli NCTC12923, replicate 1, read-out: MIC #1): > 64 mg/L
MIC ([8]; Escherichia coli NCTC12923, replicate 2, read-out: MIC #2): > 64 mg/L
MIC ([8]; Escherichia coli NCTC12923, replicate 3, read-out: MIC #3): > 64 mg/L
MIC ([9]; Enterococcus faecalis 12201, replicate 1, read-out: MIC #1): > 64 mg/L
MIC ([9]; Enterococcus faecalis 12201, replicate 2, read-out: MIC #2): > 64 mg/L
MIC ([9]; Enterococcus faecalis 12201, replicate 3, read-out: MIC #3): > 64 mg/L
MIC (MSSA 9144; MSSA 9144, replicate 1, read-out: MIC #1): > 64 mg/L
MIC (MSSA 9144; MSSA 9144, replicate 2, read-out: MIC #2): > 64 mg/L
MIC (MSSA 9144; MSSA 9144, replicate 3, read-out: MIC #3): > 64 mg/L
MIC [10]: > 64 mg/L
IC50 (A. thaliana DHDPS): 92.4 µM

Structure (SMILES): COc1ccc(/C=C2\NC(=O)N(CC(=O)O)C2=O)cc1 [Compound 42, (Z)-2-(4-(4-Methoxybenzylidene)-2,5-dioxoimidazolidin-1-yl)acetic Acid]
IC50 (A. thaliana DHDPS): 66.1 µM
% viability 1 ([11]; HepG2, 12.5 μM): 81.0%
% viability 2 ([11]; HepG2, 12.5 μM): 99.1%
% viability 3 ([11]; HepG2, 12.5 μM): 70.9%
% viability 1 ([11]; HepG2, 25 μM): 81.0%
% viability 2 ([11]; HepG2, 25 μM): 99.1%
% viability 3 ([11]; HepG2, 25 μM): 70.9%
% viability 1 ([11]; HepG2, 50 μM): 88.8%
% viability 2 ([11]; HepG2, 50 μM): 98.3%
% viability 3 ([11]; HepG2, 50 μM): 90.4%
% viability 1 ([11]; HepG2, 100 μM): 88.0%
% viability 2 ([11]; HepG2, 100 μM): 86.0%
% viability 3 ([11]; HepG2, 100 μM): 84.1%
% viability 1 ([11]; HepG2, 200 μM): 98.4%
% viability 2 ([11]; HepG2, 200 μM): 101%
% viability 3 ([11]; HepG2, 200 μM): 82.4%
% viability 1 ([11]; HepG2, 400 μM): 80.9%
% viability 2 ([11]; HepG2, 400 μM): 82.9%
% viability 3 ([11]; HepG2, 400 μM): 82.1%
toxicity to HepG2 cells (in words) ([11]; HepG2, MTT, up to 400 μM (Defensin 100 μM)): effectively nontoxic
% Viability Remaining 1 ([12]; HEK293, 12.5 μM): 104%
% Viability Remaining 2 ([12]; HEK293, 12.5 μM): 93.9%
% Viability Remaining 3 ([12]; HEK293, 12.5 μM): 87.6%
% Viability Remaining 1 ([12]; HEK293, 25 μM): 110%
% Viability Remaining 2 ([12]; HEK293, 25 μM): 93.9%
% Viability Remaining 3 ([12]; HEK293, 25 μM): 87.6%
% Viability Remaining 1 ([12]; HEK293, 50 μM): 80.6%
% Viability Remaining 2 ([12]; HEK293, 50 μM): 94.5%
% Viability Remaining 3 ([12]; HEK293, 50 μM): 98.9%
% Viability Remaining 1 ([12]; HEK293, 100 μM): 110%
% Viability Remaining 2 ([12]; HEK293, 100 μM): 107%
% Viability Remaining 3 ([12]; HEK293, 100 μM): 115%
% Viability Remaining 1 ([12]; HEK293, 200 μM): 94.0%
% Viability Remaining 2 ([12]; HEK293, 200 μM): 99.6%
% Viability Remaining 3 ([12]; HEK293, 200 μM): 94.1%
% Viability Remaining 1 ([12]; HEK293, 400 μM): 105%
% Viability Remaining 2 ([12]; HEK293, 400 μM): 103%
% Viability Remaining 3 ([12]; HEK293, 400 μM): 80.9%
toxicity to HEK293 cells (in words) ([12]; HEK293, MTT, up to 400 μM (Defensin 100 μM)): effectively nontoxic

Structure (SMILES): COc1ccc(/C=C2\SC(=O)N(CCC(=O)O)C2=O)cc1 [Compound 50, (Z)-3-(5-(4-Methoxybenzylidene)-2,4-dioxothiazolidin-3-yl)propanoic Acid]
IC50 (A. thaliana DHDPS): > 250 µM

Structure (SMILES): COc1ccc(CC2SC(=O)N(CC(=O)O)C2=O)cc1 (stereo not drawn) [Compound 52]
IC50 (A. thaliana DHDPS): > 250 µM

Further compounds by falling IC50 (A. thaliana DHDPS), results first:

IC50 (A. thaliana DHDPS): 89.1 µM
Structure (SMILES): COc1ccc(/C=C2\SC(=O)N(Cc3nnn[nH]3)C2=O)cc1 [Compound 49, (Z)-3-((1H-Tetrazol-5-yl)methyl)-5-(4-methoxybenzylidene)thiazolidine-2,4-dione]

IC50 (A. thaliana DHDPS): 66.8 µM
Structure (SMILES): COc1ccc(/C=C2\SC(=O)N(CCCC(=O)O)C2=O)cc1 [Compound 51, (Z)-4-(5-(4-Methoxybenzylidene)-2,4-dioxothiazolidin-3-yl)butanoic Acid]
